Experiment [1] relates to synthesis of LTB4 in human whole blood. Description: human whole blood LTB4 production inhibition assay. The format is cell-based. To be noted: Homo sapiens, heparinized human whole blood, calcimycin 20 μM; read-out: hWB LTB4 IC50. In a few lines: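 Readout: plasma LTB4 by antibody-based HTRF. Compound added to heparinized human whole blood, 15 min 37° C; calcimycin 20 μM final (PBS pH 7.4), 30 min 37° C; spun 1500×g 5 min, plasma taken.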

The target of experiment [2] is T1, recombinant human FLAP protein (Homo sapiens, UniProt P20292).
T1 construct: made in house; host or cells: Sf9 insect cells (100,000 x g membrane fraction)
T1 sequence (P20292 1-161): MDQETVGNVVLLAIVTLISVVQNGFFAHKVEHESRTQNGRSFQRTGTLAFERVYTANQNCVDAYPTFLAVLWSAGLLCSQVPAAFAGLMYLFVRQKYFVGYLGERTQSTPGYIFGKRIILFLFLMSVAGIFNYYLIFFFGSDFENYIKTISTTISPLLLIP
Nature of the experiment: FLAP binding assay (Scintillation Proximity Assay, displacement of [125I]L-691,831). Particulars: recombinant human FLAP membranes, [125I]L-691,831 probe; read-out: FLAP SPA IC50. The essentials: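 WGA scintillation proximity beads were stirred 1 h with 5 μg of FLAP-containing membrane protein. The membranes came from baculovirus Sf9 cells, Dounce-lysed and spun to a 100,000×g pellet in buffer at pH 7.5.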

The source of these data is patent US8580829B2 (Boehringer Ingelheim International GmbH, priority 2010, dated 2013).

For orientation: IC50 means the concentration that gives 50% inhibition.

The structures appear in SMILES notation.

Take `CN(C(=O)Cn1cc(-c2nc(C3(c4ccc(-c5cnc(N)nc5)cc4)CCC3)no2)cn1)C1CCOCC1` [Example 235, 2-[4-(3-{1-[4-(2-Amino-pyrimidin-5-yl)-phenyl]-cyclobutyl}-[1,2,4]oxadiazol-5-yl)-pyrazol-1-yl]-N-methyl-N-(tetrahydro-pyran-4-yl)-acetamide]: the figures for the half-inhibitory concentration (IC50) in experiment [1] and in experiment [2] were 67 nM and 1.7 nM, respectively.
`COC1CN(C(=O)Cn2cc(-c3nc(C4(c5ccc(-c6cnc(N)nc6)cc5)CCC4)no3)cn2)C1` [Example 236, 2-[4-(3-{1-[4-(2-Amino-pyrimidin-5-yl)-phenyl]-cyclobutyl}-[1,2,4]oxadiazol-5-yl)-pyrazol-1-yl]-1-(3-methoxy-azetidin-1-yl)-ethanone]: the IC50 in experiment [1] was 230 nM; in experiment [2] it was 5.6 nM.
The matching figures for `Nc1ncc(-c2ccc(C3(c4noc(-c5cnn(CC(=O)NC6CCNCC6)c5)n4)CCC3)cc2)cn1` [Example 237, 2-[4-(3-{1-[4-(2-Amino-pyrimidin-5-yl)-phenyl]-cyclobutyl}-[1,2,4]oxadiazol-5-yl)-pyrazol-1-yl]-N-piperidin-4-yl-acetamide]: above 5000 nM and 2 nM.
For `N#CCn1cc(-c2nc(C3(c4ccc(-c5cnc(N)nc5)cc4)CCC3)no2)cn1` [Example 238, [4-(3-{1-[4-(2-Amino-pyrimidin-5-yl)-phenyl]-cyclobutyl}-[1,2,4]oxadiazol-5-yl)-pyrazol-1-yl]-acetonitrile] the same measures were 37 nM and 1 nM.
The matching figures for `Nc1ncc(-c2ccc(C3(c4noc(-c5cnn(CC(=O)N6CCC(O)C6)c5)n4)CCC3)cc2)cn1` (centres unmarked) [Example 239, 2-[4-(3-{1-[4-(2-Amino-pyrimidin-5-yl)-phenyl]-cyclobutyl}-[1,2,4]oxadiazol-5-yl)-pyrazol-1-yl]-1-(3-hydroxy-pyrrolidin-1-yl)-ethanone]: 2500 nM and 6.2 nM.
Turning to `CN(C)CCn1cc(-c2nc(C3(c4ccc(-c5cnc(N)nc5)cc4)CCC3)no2)cn1` [Example 240, 5-[4-(1-{5-[1-(2-Dimethylamino-ethyl)-1H-pyrazol-4-yl]-[1,2,4]oxadiazol-3-yl}-cyclobutyl)-phenyl]-pyrimidin-2-ylamine], the IC50 in experiment [1] came to 47 nM; in experiment [2], 3.6 nM.
For `COCCN(C)C(=O)Cn1cc(-c2nc(C3(c4ccc(-c5cnc(N)nc5)cc4)CCC3)no2)cn1` [Example 241, 2-[4-(3-{1-[4-(2-Amino-pyrimidin-5-yl)-phenyl]-cyclobutyl}-[1,2,4]oxadiazol-5-yl)-pyrazol-1-yl]-N-(2-methoxy-ethyl)-N-methyl-acetamide] the same measures were 140 nM and 3.5 nM.
For `CN(CC1CCCO1)C(=O)Cn1cc(-c2nc(C3(c4ccc(-c5cnc(N)nc5)cc4)CCC3)no2)cn1` (centres unmarked) [Example 242, 2-[4-(3-{1-[4-(2-Amino-pyrimidin-5-yl)-phenyl]-cyclobutyl}-[1,2,4]oxadiazol-5-yl)-pyrazol-1-yl]-N-methyl-N-(tetrahydro-furan-2-ylmethyl)-acetamide] the same measures were 120 nM and 5.4 nM.
For `CC(C)N1CCN(C(=O)Cn2cc(-c3nc(C4(c5ccc(-c6cnc(N)nc6)cc5)CCC4)no3)cn2)CC1` [Example 243, 2-[4-(3-{1-[4-(2-Amino-pyrimidin-5-yl)-phenyl]-cyclobutyl}-[1,2,4]oxadiazol-5-yl)-pyrazol-1-yl]-1-(4-isopropyl-piperazin-1-yl)-ethanone] the same measures were 200 nM and 8.5 nM.
Take `Nc1ncc(-c2ccc(C3(c4noc(-c5cn(C(c6ccccc6)(c6ccccc6)c6ccccc6)cn5)n4)CCC3)cc2)cn1` [Example 244, 5-(4-{1-[5-(1-Trityl-1H-imidazol-4-yl)-[1,2,4]oxadiazol-3-yl]-cyclobutyl}-phenyl)-pyrimidin-2-ylamine]: the results for the IC50 in experiment [1] and in experiment [2] were above 5000 nM and 250 nM, respectively.
For `Cn1ccnc1-c1nc(C2(c3ccc(-c4cnc(N)nc4)cc3)CCC2)no1` [Example 245, 5-(4-{1-[5-(1-Methyl-1H-imidazol-2-yl)-[1,2,4]oxadiazol-3-yl]-cyclobutyl}-phenyl)-pyrimidin-2-ylamine] the same measures were 1700 nM and 38 nM.
For `N#CC1CCN(CCn2cc(-c3nc(C4(c5ccc(-c6cnc(N)nc6)cc5)CCC4)no3)cn2)CC1` [Example 246, 1-{2-[4-(3-{1-[4-(2-Amino-pyrimidin-5-yl)-phenyl]-cyclobutyl}-[1,2,4]oxadiazol-5-yl)-pyrazol-1-yl]-ethyl}-piperidine-4-carbonitrile] the same measures were 79 nM and 8.1 nM.
In the case of `CN(C(=O)Cn1cc(-c2nc(C3(c4ccc(-c5cnc(N)nc5)cc4)CCC3)no2)cn1)C1CCCOC1` (centres unmarked) [Example 247, 2-[4-(3-{1-[4-(2-Amino-pyrimidin-5-yl)-phenyl]-cyclobutyl}-[1,2,4]oxadiazol-5-yl)-pyrazol-1-yl]-N-methyl-N-(tetrahydro-pyran-3-yl)-acetamide], the results for the IC50 in experiment [1] and in experiment [2] were 88 nM and 8.2 nM, respectively.
The matching figures for `Cn1cc(-c2nc(C3(c4ccc(-c5ccc(C6CC6)nc5)cc4)CCC3)no2)cn1` [Example 248, 2-Cyclopropyl-5-(4-{1-[5-(1-methyl-1H-pyrazol-4-yl)-[1,2,4]oxadiazol-3-yl]-cyclobutyl}-phenyl)-pyridine]: above 5000 nM and 730 nM.
The matching figures for `CC(CN(C)C)n1cc(-c2nc(C3(c4ccc(-c5cnc(N)nc5)cc4)CCC3)no2)cn1` (centres unmarked) [Example 249, 5-[4-(1-{5-[1-(2-Dimethylamino-1-methyl-ethyl)-1H-pyrazol-4-yl]-[1,2,4]oxadiazol-3-yl}-cyclobutyl)-phenyl]-pyrimidin-2-ylamine]: 69 nM and 7.8 nM.
The matching figures for `CC(=O)N1CCN(CCn2cc(-c3nc(C4(c5ccc(-c6cnc(N)nc6)cc5)CCC4)no3)cn2)CC1` [Example 250, 1-(4-{2-[4-(3-{1-[4-(2-Amino-pyrimidin-5-yl)-phenyl]-cyclobutyl}-[1,2,4]oxadiazol-5-yl)-pyrazol-1-yl]-ethyl}-piperazin-1-yl)-ethanone]: 220 nM and 8.6 nM.
For `CN(C)C(=O)Cn1cnc(-c2nc(C3(c4ccc(-c5cnc(N)nc5)cc4)CCC3)no2)c1` [Example 251, 2-[4-(3-{1-[4-(2-Amino-pyrimidin-5-yl)-phenyl]-cyclobutyl}-[1,2,4]oxadiazol-5-yl)-imidazol-1-yl]-N,N-dimethyl-acetamide], the IC50 in experiment [1] was found to be 2200 nM; in experiment [2], 36 nM.
In the case of `Nc1ccc(-c2ccc(C3(c4noc(-c5cnn(C6COC6)c5)n4)CCC3)cc2)cn1` [Example 252, 5-(4-{1-[5-(1-Oxetan-3-yl-1H-pyrazol-4-yl)-[1,2,4]oxadiazol-3-yl]-cyclobutyl}-phenyl)-pyridin-2-ylamine], the figures for the IC50 in experiment [1] and in experiment [2] were 34 nM and 5.3 nM, respectively.
The matching figures for `Nc1ncc(-c2ccc(C3(c4noc(-c5cnn(CCN6CCCC6)c5)n4)CCC3)cc2)cn1` [Example 253, 5-[4-(1-{5-[1-(2-Pyrrolidin-1-yl-ethyl)-1H-pyrazol-4-yl]-[1,2,4]oxadiazol-3-yl}-cyclobutyl)-phenyl]-pyrimidin-2-ylamine]: 75 nM and 8.1 nM.
For `CC(C)(O)Cn1cc(-c2nc(C3(c4ccc(-c5cnc(N)nc5)cc4)CC3)no2)cn1` [Example 254, 1-[4-(3-{1-[4-(2-Amino-pyrimidin-5-yl)-phenyl]-cyclopropyl}-[1,2,4]oxadiazol-5-yl)-pyrazol-1-yl]-2-methyl-propan-2-ol] the same measures were 4700 nM and 190 nM.
The matching figures for `Nc1ncc(-c2ccc(C3(c4noc(-c5cnn(C6COC6)c5)n4)CC3)cc2)cn1` [Example 255, 5-(4-{1-[5-(1-Oxetan-3-yl-1H-pyrazol-4-yl)-[1,2,4]oxadiazol-3-yl]-cyclopropyl}-phenyl)-pyrimidin-2-ylamine]: 1900 nM and 150 nM.
On to `CO[C@@H]1CCN(C(=O)Cn2cc(-c3nc(C4(c5ccc(-c6cnc(N)nc6)cc5)CCC4)no3)cn2)C1` [Example 256, 2-[4-(3-{1-[4-(2-Amino-pyrimidin-5-yl)-phenyl]-cyclobutyl}-[1,2,4]oxadiazol-5-yl)-pyrazol-1-yl]-1-((R)-3-methoxy-pyrrolidin-1-yl)-ethanone], for which the IC50 came out at 220 nM in experiment [1] and 22 nM in experiment [2].
For `Cn1cc(-c2nc(C3(c4ccc(-c5cnc(N)nc5)cc4)CC3)no2)cn1` [Example 257, 5-(4-{1-[5-(1-Methyl-1H-pyrazol-4-yl)-[1,2,4]oxadiazol-3-yl]-cyclopropyl}-phenyl)-pyrimidin-2-ylamine], the figures for the IC50 in experiment [1] and in experiment [2] were 2200 nM and 100 nM, respectively.
The matching figures for `Cn1cc(-c2nc(C3(c4ccc(-c5ccc(N)nn5)cc4)CCC3)no2)cn1` [Example 258, 6-(4-{1-[5-(1-Methyl-1H-pyrazol-4-yl)-[1,2,4]oxadiazol-3-yl]-cyclobutyl}-phenyl)-pyridazin-3-ylamine]: 610 nM and 73 nM.
The matching figures for `CO[C@H]1CCN(C(=O)Cn2cc(-c3nc(C4(c5ccc(-c6cnc(N)nc6)cc5)CCC4)no3)cn2)C1` [Example 259, 2-[4-(3-{1-[4-(2-Amino-pyrimidin-5-yl)-phenyl]-cyclobutyl}-[1,2,4]oxadiazol-5-yl)-pyrazol-1-yl]-1-((S)-3-methoxy-pyrrolidin-1-yl)-ethanone]: 210 nM and 16 nM.
